Measurements reported in PubChem BioAssay AID1053199 (The Scripps Research Institute Molecular Screening Center, 2014).
Active and inactive are the calls of the source.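 The calls were made as follows: active = inhibition at or above 50% when tested at 10 µM; inactive = inhibition below 50% at 10 µM.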

Biological target: Methionine--tRNA ligase, mitochondrial (Homo sapiens) (UniProt Q96GW9)
Assay: human mitochondrial MetRS inhibition, late-stage follow-up, selectivity assay for T. brucei MetRS inhibitor project, biochemical, radioactivity, round 3 (AID 1053199)
Settings: recombinant human mitochondrial MetRS, [3H]Met aminoacylation, stronger effect = higher value

Methionine--tRNA ligase, mitochondrial (Homo sapiens), sequence (Q96GW9 whole entry, looked up): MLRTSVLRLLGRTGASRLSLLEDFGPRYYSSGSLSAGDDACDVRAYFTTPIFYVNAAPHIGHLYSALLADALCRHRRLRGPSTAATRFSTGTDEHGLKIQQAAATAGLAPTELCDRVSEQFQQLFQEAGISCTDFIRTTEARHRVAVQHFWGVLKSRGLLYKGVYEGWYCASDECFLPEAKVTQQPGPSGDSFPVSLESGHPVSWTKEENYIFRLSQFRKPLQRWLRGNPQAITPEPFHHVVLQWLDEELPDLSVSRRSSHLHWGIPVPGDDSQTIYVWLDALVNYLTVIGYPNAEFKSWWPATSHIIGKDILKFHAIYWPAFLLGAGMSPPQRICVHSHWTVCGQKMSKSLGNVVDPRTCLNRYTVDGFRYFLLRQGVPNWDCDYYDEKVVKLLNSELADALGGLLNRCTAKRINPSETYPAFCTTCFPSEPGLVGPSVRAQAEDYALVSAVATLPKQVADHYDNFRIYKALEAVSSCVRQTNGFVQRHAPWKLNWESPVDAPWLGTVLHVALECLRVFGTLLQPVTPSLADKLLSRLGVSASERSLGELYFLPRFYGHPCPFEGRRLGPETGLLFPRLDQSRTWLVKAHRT

Row | Structure (SMILES) | inhibition (at 10 µM) | inhibition (inhibition, at 1 µM)
1 | CCN(CC)C(=O)C(=O)c1cn(CCNc2cc(Oc3ccccc3)cc(C(F)(F)F)c2)c2ccccc12 | 2.68% (inactive) | -2.31%
2 | O=C(Cc1ccc(Nc2nc3ccc(Br)cc3[nH]2)cc1)NCCc1cccs1 | 0.91% (inactive) | 5.12%
3 | CCN(CC)C(=O)C(=O)c1cn(CC(=O)Nc2cc(Oc3ccc(OC)cc3)cc(C(F)(F)F)c2)c2ccccc12 | -1.74% (inactive) | -4.97%
4 | CCN(CC)C(=O)C(=O)c1cn(CC(=O)Nc2cc(Oc3ccccc3OC)cc(C(F)(F)F)c2)c2ccccc12 | 6.34% (inactive) | -6.59%
5 | CCN(CC)C(=O)C(=O)c1cn(CC(=O)Nc2cc(Oc3ccccc3F)cc(C(F)(F)F)c2)c2ccccc12 | -4.45% (inactive) | -5.27%
6 | O=C(Cn1cc(C(=O)C(=O)NCc2ccccc2)c2ccccc21)Nc1cc(Oc2ccccc2)cc(C(F)(F)F)c1 | -8.53% (inactive) | -1.57%
7 | CCN(CC)C(=O)Cc1cn(CC(=O)Nc2cccc(C(F)(F)F)c2)c2ccccc12 | -11.2% (inactive) | -8.45%
8 | CCN(CC)C(=O)C(=O)c1cn(CCNc2cccc(C(F)(F)F)c2)c2ccccc12 | 0.1% (inactive) | -5.12%
9 | Nc1c(Cl)ncnc1Nc1ccc(C(=O)O)cc1 | 6.59% (inactive) | 2.59%
10 | CCN(CC)C(=O)C(=O)c1cn(CC(=O)Nc2cc(Oc3ccc(F)cc3)cc(C(F)(F)F)c2)c2ccccc12 | 7.56% (inactive) | -2.44%
